# Reference: patent US20240140991A1, “ANTIBIOTIC NATURAL PRODUCT ANALOGUES” (THE QUEEN'S UNIVERSITY OF BELFAST, priority 2021, published 2024)
# Positions of bridges follow the written chain, without caps; N, C: chain ends. Non-standard residues stand in square brackets, D forms with d. Residues, ends and D or L forms follow the SMILES beside them. ξ: configuration not given here. *: point of attachment. Octanoyl(7-Me) = CC(C)CCCCCC(=O)*; Hexanoyl(4ξ-Me) = CCC(C)CCC(=O)*; dOrn = NCCC[C@@H](N)C(=O)O; Octanoyl = CCCCCCCC(=O)*; Orn = NCCC[C@H](N)C(=O)O; Dap = NC[C@H](N)C(=O)O; Alloc = C=CCOC(=O)*; OAll = C=CCO*
# System: Escherichia coli ATCC 25922
# Type: cell-based
# Details: ATCC 25922
# Method: Minimum inhibitory concentration (MIC) was determined by broth microdilution according to CLSI guidelines. Blood agar plates were inoculated with glycerol stocks of Escherichia coli ATCC 25922, E. coli ATCC 25922 MCR-1, E. coli MCR-1 (clinical isolate from Utrecht Medical Center, NL), E. coli EQAS MCR-2 (clinical isolate from Wageningen University and Research, NL), Kiebsielia pneumoniae ATCC 11228, K. pneumoniae ATCC 13883, K. pneumonia 2048 (clinical isolate from Vrije Universiteit Amsterdam Medical Center, NL), K. pneumonia JS-123 (clinical isolate from Utrecht Medical Center, NL), Acinetobacter baumannii ATCC 17961, A. baumannil ATCC 17978, A. baumannii 2018-006 (clinical isolate from Rijksinstituut voor Volksgezondheid en Milieu, NL), A. baumannii MDR (clinical isolate from Vrije Universiteit Amsterdam Medical Center, NL), Pseudomonas aeruginosa ATCC 27853, P. aeruginosa PAO1, P. aeruginosa NRZ-03961 (Reference strain from Das Nationale Referenzzentrum für gramnegative Krankenhauserreger, DE), P. aeruginosa M-120 (clinical isolate from Leiden University Medical Center, NL) and Staphylococcus aureus USA300 (clinical isolate from Texas Children's Hospitalm, USA). E. coli 25922 MCR1 was grown on LB agar supplemented with kanamycin. The inoculated agar plates were then incubated for 16 hours at 37° C. Individually grown colonies were subsequently used to inoculate 3 mL aliquots of TSB that were then incubated at 37° C. with shaking at 220 rpm. In parallel, the compounds to be assessed were serially diluted with Mueller-Hinton broth (MHB) in polypropylene 96-well plates (50 μL in each well). Once the OD600 of the bacterial suspensions reached 0.5, the bacteria were diluted with MHB (final concentration 2×10^5 CFU mL^−1) and added to the microplates containing the test compounds (50 μL to each well, final volume: 100 μL). The well-plates were sealed with an adhesive membrane and after 16 hours of incubation at 37° C. with shaking at 220 rpm the wells were visually inspected for bacterial growth. MIC values were defined as the lowest concentration of the compound that prevented visible growth of bacteria.
row,Compound,Minimum inhibitory concentration (MIC) [µg/mL]
1,CCC(C)CCC(=O)N[C@H](CO)C(=O)N[C@H](Cc1ccc(O)cc1)C(=O)N[C@H](Cc1c[nH]c2ccccc12)C(=O)N[C@H](CCCN)C(=O)N[C@@H](CCCN)C(=O)NCC(=O)N[C@H](CCCN)C(=O)N[C@@H](Cc1c[nH]c2ccccc12)C(=O)N[C@@H]1C(=O)N[C@@H]([C@@H](C)CC)C(=O)NCC(=O)N[C@@H](CO)C(=O)N[C@@H](C)C(=O)O[C@@H]1C (stereo partly drawn) [Compound R5] ({Hexanoyl(4ξ-Me)}-[dS][dY][dW][dOrn][Orn]G[dOrn]WTIGSA; ester 9-C; N-terminus assumed),2
2,CC[C@H](C)[C@@H]1NC(=O)[C@@H](NC(=O)[C@H](Cc2c[nH]c3ccccc23)NC(=O)[C@@H](CCCN)NC(=O)CNC(=O)[C@H](CCCN)NC(=O)[C@@H](CCCN)NC(=O)[C@@H](Cc2c[nH]c3ccccc23)NC(=O)[C@@H](Cc2ccc(O)cc2)NC(=O)[C@@H](CO)NC(=O)CCCCCC(C)C)[C@@H](C)OC(=O)[C@@H](C)NC(=O)[C@H](CO)NC(=O)CNC1=O [Compound R11] ({Octanoyl(7-Me)}-[dS][dY][dW][dOrn][Orn]G[dOrn]WTIGS[dA]; ester 9-C; N-terminus assumed),1
3,"CC[C@H](C)[C@H](NC(=O)[C@@H](NC(=O)[C@H](Cc1c[nH]c2ccccc12)NC(=O)[C@@H](CCCN)NC(=O)CNC(=O)[C@H](CCCN)NC(=O)[C@@H](C)NC(=O)[C@@H](Cc1c[nH]c2ccccc12)NC(=O)[C@@H](Cc1ccc(O)cc1)NC(=O)[C@@H](CO)NC(=O)CCCCCC(C)C)[C@@H](C)O)C(=O)N[C@@H](CC(N)=O)C(=O)NCC(=O)NCC(N)=O [Ala4 (D-Orn→D-Ala), FA-sywaOGoWTINGG-CONH2] ({Octanoyl(7-Me)}-[dS][dY][dW][dA][Orn]G[dOrn]WTINGG-NH2)",32
4,CCCCCCCC(=O)N[C@H](CO)C(=O)N[C@H](Cc1ccc(O)cc1)C(=O)N[C@H](Cc1c[nH]c2ccccc12)C(=O)N[C@H](CCCN)C(=O)N[C@@H](CCCN)C(=O)NCC(=O)N[C@H](CCCN)C(=O)N[C@@H](Cc1c[nH]c2ccccc12)C(=O)N[C@@H](CO)C(=O)N[C@H](C(=O)N[C@@H](CC(N)=O)C(N)=O)[C@@H](C)CC [ΔG12-G13-Ser9-C8] (Octanoyl-[dS][dY][dW][dOrn][Orn]G[dOrn]WSIN-NH2),4
5,"CC[C@H](C)[C@H](NC(=O)[C@@H](NC(=O)[C@H](Cc1c[nH]c2ccccc12)NC(=O)[C@@H](CCCN)NC(=O)CNC(=O)[C@H](CCCN)NC(=O)[C@@H](CCCN)NC(=O)[C@@H](Cc1c[nH]c2ccccc12)NC(=O)[C@@H](C)NC(=O)[C@@H](CO)NC(=O)CCCCCC(C)C)[C@@H](C)O)C(=O)N[C@@H](CC(N)=O)C(=O)NCC(=O)NCC(N)=O [Ala2 (D-Tyr→D-Ala), FA-sawoOGoWTINGG-CONH2] ({Octanoyl(7-Me)}-[dS][dA][dW][dOrn][Orn]G[dOrn]WTINGG-NH2)",8 to 16
6,"CC[C@H](C)[C@H](NC(=O)[C@@H](NC(=O)[C@H](Cc1c[nH]c2ccccc12)NC(=O)[C@@H](CCCN)NC(=O)CNC(=O)[C@H](CCCN)NC(=O)[C@@H](CCCN)NC(=O)[C@@H](Cc1c[nH]c2ccccc12)NC(=O)[C@@H](Cc1ccc(O)cc1)NC(=O)[C@@H](CO)NC(=O)CCCCCC(C)C)[C@@H](C)O)C(N)=O [ΔN11-G13, FA-sywoOGoWTI-CONH2] ({Octanoyl(7-Me)}-[dS][dY][dW][dOrn][Orn]G[dOrn]WTI-NH2)",4
7,CC[C@H](C)[C@@H]1NC(=O)[C@@H](NC(=O)[C@H](Cc2c[nH]c3ccccc23)NC(=O)[C@@H](CCCN)NC(=O)CNC(=O)[C@H](CCCN)NC(=O)[C@@H](CCCN)NC(=O)[C@@H](Cc2c[nH]c3ccccc23)NC(=O)[C@@H](Cc2ccc(O)cc2)NC(=O)[C@@H](CO)NC(=O)CCCCCC(C)C)[C@@H](C)OC(=O)CNC(=O)[C@H](CO)NC(=O)CNC1=O [Compound R3] ({Octanoyl(7-Me)}-[dS][dY][dW][dOrn][Orn]G[dOrn]WTIGSG; ester 9-C; N-terminus assumed),2 to 4

# Second part, the molecule after the results:
row,Minimum inhibitory concentration (MIC) [µg/mL],Compound
1,4,C=CCOC(=O)NC[C@H](NC(=O)[C@H](Cc1c[nH]c2ccccc12)NC(=O)[C@@H](CCCN)NC(=O)CNC(=O)[C@H](CCCN)NC(=O)[C@@H](CCCN)NC(=O)[C@@H](Cc1c[nH]c2ccccc12)NC(=O)[C@@H](Cc1ccc(O)cc1)NC(=O)[C@@H](CO)NC(=O)CCCCCCC)C(=O)N[C@H](C(=O)N[C@@H](CC(N)=O)C(N)=O)[C@@H](C)CC [ΔG12-G13-Dap(Alloc)9-C8] (Octanoyl-[dS][dY][dW][dOrn][Orn]G[dOrn]W[Dap](Alloc)IN-NH2)
2,4,C=CCOC(=O)NC[C@H](NC(=O)[C@H](Cc1c[nH]c2ccccc12)NC(=O)[C@@H](CCCN)NC(=O)CNC(=O)[C@H](CCCN)NC(=O)[C@@H](CCCN)NC(=O)[C@@H](Cc1c[nH]c2ccccc12)NC(=O)[C@@H](Cc1ccc(O)cc1)NC(=O)[C@@H](CO)NC(=O)CCCCCC(C)C)C(=O)N[C@H](C(=O)N[C@@H](CC(N)=O)C(N)=O)[C@@H](C)CC [ΔG12-G13-Dap(Alloc)9-isoC9] ({Octanoyl(7-Me)}-[dS][dY][dW][dOrn][Orn]G[dOrn]W[Dap](Alloc)IN-NH2)
3,2 to 4,C=CCOC(=O)NC[C@H](NC(=O)[C@H](Cc1c[nH]c2ccccc12)NC(=O)[C@@H](CCCN)NC(=O)CNC(=O)[C@H](CCCN)NC(=O)[C@@H](CCCN)NC(=O)[C@@H](Cc1c[nH]c2ccccc12)NC(=O)[C@@H](Cc1ccc(O)cc1)NC(=O)[C@@H](CO)NC(=O)CCCCCCC)C(=O)N[C@H](C(=O)N[C@@H](CC(N)=O)C(=O)NCC(N)=O)[C@@H](C)CC [ΔG13-Dap(Alloc)9-C8] (Octanoyl-[dS][dY][dW][dOrn][Orn]G[dOrn]W[Dap](Alloc)ING-NH2)
4,2,CC[C@H](C)[C@H](NC(=O)[C@H](Cc1ccccc1)NC(=O)[C@H](Cc1c[nH]c2ccccc12)NC(=O)[C@@H](CCCN)NC(=O)CNC(=O)[C@H](CCCN)NC(=O)[C@@H](CCCN)NC(=O)[C@@H](Cc1c[nH]c2ccccc12)NC(=O)[C@@H](Cc1ccc(O)cc1)NC(=O)[C@@H](CO)NC(=O)CCCCCC(C)C)C(=O)N[C@@H](CC(N)=O)C(=O)NCC(=O)NCC(N)=O [Phe9-CONH2] ({Octanoyl(7-Me)}-[dS][dY][dW][dOrn][Orn]G[dOrn]WFINGG-NH2)
5,1 to 2,C=CCOC(=O)NC[C@H](NC(=O)[C@H](Cc1c[nH]c2ccccc12)NC(=O)[C@@H](CCCN)NC(=O)CNC(=O)[C@H](CCCN)NC(=O)[C@@H](CCCN)NC(=O)[C@@H](Cc1c[nH]c2ccccc12)NC(=O)[C@@H](Cc1ccc(O)cc1)NC(=O)[C@@H](CO)NC(=O)CCCCCC(C)C)C(=O)N[C@H](C(=O)N[C@@H](CC(N)=O)C(=O)NCC(=O)NCC(N)=O)[C@@H](C)CC [Dap(Alloc)] ({Octanoyl(7-Me)}-[dS][dY][dW][dOrn][Orn]G[dOrn]W[Dap](Alloc)INGG-NH2)
6,2,CC[C@H](C)[C@H](NC(=O)[C@H](CO)NC(=O)[C@H](Cc1c[nH]c2ccccc12)NC(=O)[C@@H](CCCN)NC(=O)CNC(=O)[C@H](CCCN)NC(=O)[C@@H](CCCN)NC(=O)[C@@H](Cc1c[nH]c2ccccc12)NC(=O)[C@@H](Cc1ccc(O)cc1)NC(=O)[C@@H](CO)NC(=O)CCCCCC(C)C)C(=O)N[C@@H](CC(N)=O)C(=O)NCC(=O)NCC(N)=O [Ser9-CONH2] ({Octanoyl(7-Me)}-[dS][dY][dW][dOrn][Orn]G[dOrn]WSINGG-NH2)
7,2,C=CCOC(=O)CNC(=O)CNC(=O)[C@H](CC(N)=O)NC(=O)[C@@H](NC(=O)[C@H](CNC(=O)OCC=C)NC(=O)[C@H](Cc1c[nH]c2ccccc12)NC(=O)[C@@H](CCCN)NC(=O)CNC(=O)[C@H](CCCN)NC(=O)[C@@H](CCCN)NC(=O)[C@@H](Cc1c[nH]c2ccccc12)NC(=O)[C@@H](Cc1ccc(O)cc1)NC(=O)[C@@H](CO)NC(=O)CCCCCC(C)C)[C@@H](C)CC [Dap(Alloc)9-COOAll] ({Octanoyl(7-Me)}-[dS][dY][dW][dOrn][Orn]G[dOrn]W[Dap](Alloc)INGG-OAll)
8,2,CC[C@H](C)[C@H](NC(=O)[C@H](CCSC)NC(=O)[C@H](Cc1c[nH]c2ccccc12)NC(=O)[C@@H](CCCN)NC(=O)CNC(=O)[C@H](CCCN)NC(=O)[C@@H](CCCN)NC(=O)[C@@H](Cc1c[nH]c2ccccc12)NC(=O)[C@@H](Cc1ccc(O)cc1)NC(=O)[C@@H](CO)NC(=O)CCCCCC(C)C)C(=O)N[C@@H](CC(N)=O)C(=O)NCC(=O)NCC(N)=O [Met9-CONH2] ({Octanoyl(7-Me)}-[dS][dY][dW][dOrn][Orn]G[dOrn]WMINGG-NH2)
